Broadly, the GI50 is the concentration that inhibits growth by half. As usually defined, the IC50 is the concentration that inhibits the measured activity by half. Read a low IC50 as inhibition by little substance.

Test [1] has as its system K-562. The test is described as follows: Cell growth inhibition assay (CellTiter-Glo), K-562. It is filed as cell-based, human. As to conditions: K-562 cells, 4 days; for GI50: Homo sapiens, K562, 96 h, half-maximal growth inhibition; for K-562 TGI: total growth inhibition. Put shortly: (§1)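 Proliferation and viability are quantified by CellTiter-Glo after four days of incubation with serially diluted compound (maximum 10 μM). Four-parameter curve fitting gives IC50 and TGI.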
In general terms: Cellular ATP, detected with luciferase, serves as a proxy for viable cell number.

Test [2] has as its target BRD2 (Homo sapiens (Human), UniProt P25440). Kind of test: TR-FRET in-vitro binding assay for BRD2. Particulars: 45 nM His-Brd2(60-472), acetyl-histone H4 (AcK 5, 8, 12, 16) peptide. Put shortly: (§2)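 TR-FRET binding read after 35 min incubation at 30° C. Compounds dispensed from 90% DMSO solutions and tested at 8 concentrations in a 13.55 μL total reaction volume.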
For orientation: Time-resolved FRET reads energy transfer from a long-lived donor to a nearby acceptor.

Test [3] deals with MV-4-11. Kind of test: Cell growth inhibition assay (CellTiter-Glo), MV-4-11. It is filed as cell-based, human. As to conditions: MV-4-11 cells, 4 days; for GI50: Homo sapiens, MV4-11, 96 h, half-maximal growth inhibition; for MV-4-11 TGI: total growth inhibition. Put shortly:
as §1

The test system of test [4] is THP-1. Kind of test: Cell growth inhibition assay (CellTiter-Glo), THP-1. The test is classed as cell-based, human. Particulars: THP-1 cells, 4 days; for GI50: Homo sapiens, 96 h, half-maximal growth inhibition; for THP-1 TGI: total growth inhibition. Put shortly:
as §1

Test [5] deals with BRD4 (Homo sapiens (Human), UniProt O60885). Kind of test: TR-FRET in-vitro binding assay for BRD4. As to conditions: 45 nM His-Brd4(44-477), acetyl-histone H4 (AcK 5, 8, 12, 16) peptide. Put shortly: as §2
Test [6] concerns the target BRD3 (Homo sapiens (Human), UniProt Q15059). Kind of test: TR-FRET in-vitro binding assay for BRD3. Particulars: 45 nM His-Brd3(20-477), acetyl-histone H4 (AcK 5, 8, 12, 16) peptide. Put shortly: as §2
The target in test [7] is CREBBP (Homo sapiens (Human), UniProt Q92793). Kind of test: AlphaScreen in-vitro binding assay for CREBBP. As to conditions: 324 nM His-CREBBP (1081-1197), acetyl-histone H4 (AcK 5, 8, 12) peptide. Put shortly:
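IC50 values were derived by non-linear regression of percent inhibition across 8 compound concentrations. Protein was His-tagged CREBBP bromodomain (1081-1197), peptide acetyl-histone H4 (AcK 5, 8, 12), in HEPES pH 7.5 buffer. Read-out was AlphaScreen with Ni-chelate acceptor and streptavidin donor beads, 35 min at 30° C then 60 min at RT.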
A general note: Alpha assays give light when donor and acceptor beads are brought close together.

Each structure is given as a SMILES string.

CREBBP, sequence (Q92793 1081-1197): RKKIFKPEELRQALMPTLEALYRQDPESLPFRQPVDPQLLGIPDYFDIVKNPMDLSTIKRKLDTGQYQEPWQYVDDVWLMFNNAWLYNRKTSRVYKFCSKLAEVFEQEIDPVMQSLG
BRD3, sequence (Q15059 20-477): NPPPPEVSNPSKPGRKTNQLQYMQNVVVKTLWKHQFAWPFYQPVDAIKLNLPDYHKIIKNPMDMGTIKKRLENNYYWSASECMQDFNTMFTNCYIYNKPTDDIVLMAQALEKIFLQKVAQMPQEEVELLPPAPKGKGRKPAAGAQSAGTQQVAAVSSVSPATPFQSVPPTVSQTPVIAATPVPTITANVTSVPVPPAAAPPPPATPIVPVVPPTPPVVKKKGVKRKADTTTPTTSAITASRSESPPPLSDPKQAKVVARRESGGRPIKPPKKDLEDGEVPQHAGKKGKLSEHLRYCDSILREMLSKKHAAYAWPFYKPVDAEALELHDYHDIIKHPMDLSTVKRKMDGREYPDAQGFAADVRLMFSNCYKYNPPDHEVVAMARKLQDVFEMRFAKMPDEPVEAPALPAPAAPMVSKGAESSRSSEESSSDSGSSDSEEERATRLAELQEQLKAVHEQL
BRD2, sequence (P25440 60-472): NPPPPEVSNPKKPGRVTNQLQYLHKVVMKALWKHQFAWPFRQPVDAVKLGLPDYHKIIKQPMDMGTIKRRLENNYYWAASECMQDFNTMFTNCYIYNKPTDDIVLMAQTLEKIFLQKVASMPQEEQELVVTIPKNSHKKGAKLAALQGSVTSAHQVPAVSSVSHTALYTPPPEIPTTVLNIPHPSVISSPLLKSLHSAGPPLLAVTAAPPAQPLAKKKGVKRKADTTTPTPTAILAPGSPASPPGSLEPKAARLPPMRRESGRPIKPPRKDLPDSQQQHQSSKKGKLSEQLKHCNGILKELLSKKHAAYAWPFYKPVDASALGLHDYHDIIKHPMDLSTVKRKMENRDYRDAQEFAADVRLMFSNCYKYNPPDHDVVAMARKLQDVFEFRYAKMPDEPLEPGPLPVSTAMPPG

For `COCCn1cc(C)c2c1C(c1ccc(Cl)cc1)N(c1cc(C)c3nnc(C)n3c1)C2=O` (stereo not drawn) [Example 13, 6-(4-chlorophenyl)-5-(3,8-dimethyl-[1,2,4]triazolo[4,3-a]pyridin-6-yl)-1-(2-methoxyethyl)-3-methyl-5,6-dihydropyrrolo[3,4-b]pyrrol-4(1H)-one], the 50% growth inhibitory concentration (GI50) in test [1] is 73.6 nM; in test [3], 12.7 nM; in test [4], 17.6 nM. Further, in test [1], the “K-562 TGI” value was more than 10000 nM. In addition, the IC50 in test [2] amounted to 71 nM; in test [5], 62 nM; in test [6], 67 nM; in test [7], 13700 nM. The “MV-4-11 TGI” value in test [3] turned out to be 24.85 nM. In test [4], the “THP-1 TGI” value worked out at 38.9 nM.
Turning to `Cc1cn(CCO)c2c1C(=O)N(c1cc(C)c3nnc(C)n3c1)C2c1ccc(Cl)cc1` (stereo not drawn) [Example 14, 6-(4-chlorophenyl)-5-(3,8-dimethyl-[1,2,4]triazolo[4,3-a]pyridin-6-yl)-1-(2-hydroxyethyl)-3-methyl-5,6-dihydropyrrolo[3,4-b]pyrrol-4(1H)-one], the figures for the GI50 in test [1], in test [3] and in test [4] were 115 nM, 14.6 nM and 35.6 nM, respectively. Further, the “K-562 TGI” value in test [1] was more than 10000 nM. Also, the IC50 in test [2] stood at 23 nM; in test [5], 22 nM; in test [6], 25 nM; in test [7], 6600 nM. Besides, in test [3], the “MV-4-11 TGI” value was determined as 30.85 nM. Further, in test [4], the “THP-1 TGI” value amounted to 81.55 nM.
Turning to `Cc1cc(N2C(=O)c3c(C4CC4)cn(C4CN(C)C4)c3C2c2ccc(Cl)cc2)cn2c(C)nnc12` (stereo not drawn) [Example 16, 6-(4-chlorophenyl)-3-cyclopropyl-5-(3,8-dimethyl-[1,2,4]triazolo[4,3-a]pyridin-6-yl)-1-(1-methylazetidin-3-yl)-5,6-dihydropyrrolo[3,4-b]pyrrol-4(1H)-one], the GI50 in test [1] turned out to be 45.2 nM; in test [3], 3.81 nM; in test [4] it was 11.7 nM. Besides, the “K-562 TGI” value in test [1] is more than 10000 nM. Moreover, the IC50 in test [2] was 14 nM; in test [5] it was 14 nM; in test [6], 19 nM; in test [7], 5000 nM. In test [3], the “MV-4-11 TGI” value worked out at 12.4 nM. For the same compound, the “THP-1 TGI” value in test [4] is 35.5 nM.
For `CC(=O)N1CC(n2cc(C3CC3)c3c2C(c2ccc(Cl)cc2)N(c2cc(C)c4nnc(C)n4c2)C3=O)C1` (stereo not drawn) [Example 17, 1-(1-acetylazetidin-3-yl)-6-(4-chlorophenyl)-3-cyclopropyl-5-(3,8-dimethyl-[1,2,4]triazolo[4,3-a]pyridin-6-yl)-5,6-dihydropyrrolo[3,4-b]pyrrol-4(1H)-one], the GI50 in test [1] amounted to 230 nM; in test [3] it was 11.1 nM; in test [4], 43.3 nM. In addition, in test [1], the “K-562 TGI” value was more than 10000 nM. For the same compound, the IC50 in test [2] was less than 11 nM; in test [5], less than 11 nM; in test [6] it was less than 11 nM; in test [7], 4100 nM. Also, the “MV-4-11 TGI” value in test [3] came to 34.85 nM. Moreover, the “THP-1 TGI” value in test [4] was determined as 168 nM.
As to `Cc1cn(C2CN(C)C2)c2c1C(=O)N(c1cc(C)c3nnn(C)c3n1)C2c1ccc(Cl)cc1` (stereo not drawn) [Example 20, 6-(4-chlorophenyl)-5-(3,7-dimethyl-3H-[1,2,3]triazolo[4,5-b]pyridin-5-yl)-3-methyl-1-(1-methylazetidin-3-yl)-5,6-dihydropyrrolo[3,4-b]pyrrol-4(1H)-one], the values for the GI50 in test [1], in test [3] and in test [4] were 63.4 nM, 7.89 nM and 12.9 nM, respectively. Moreover, in test [1], the “K-562 TGI” value is more than 10000 nM. The half-inhibitory concentration (IC50) is 23 nM in test [2], 16 nM in test [5], 20 nM in test [6] and more than 37000 nM in test [7]. In addition, the “MV-4-11 TGI” value in test [3] was 21.25 nM. Also, the “THP-1 TGI” value in test [4] came to 38 nM.
With `Cc1cc(N2C(=O)c3cc[nH]c3C2c2ccc(Cl)cc2)cn2c(C)nnc12` (stereo not drawn) [Example 21, 6-(4-chlorophenyl)-5-(3,8-dimethyl-[1,2,4]triazolo[4,3-a]pyridin-6-yl)-5,6-dihydropyrrolo[3,4-b]pyrrol-4(1H)-one], the concentration for 50% growth inhibition (GI50) in test [1] was 246 nM; in test [3], 45.2 nM; in test [4], 63.3 nM. For the same compound, the “K-562 TGI” value in test [1] was more than 10000 nM. In addition, the IC50 in test [2] was found to be 82 nM; in test [5], 47 nM; in test [6], 53 nM; in test [7], 5100 nM. In test [3], the “MV-4-11 TGI” value is 81.05 nM. Further, the “THP-1 TGI” value in test [4] turned out to be 178 nM.
Regarding `CCOC(=O)n1ccc2c1C(c1ccc(Cl)cc1)N(c1cc(C)c3nnc(C)n3c1)C2=O` (stereo not drawn) [Example 22, Ethyl 6-(4-chlorophenyl)-5-(3,8-dimethyl-[1,2,4]triazolo[4,3-a]pyridin-6-yl)-4-oxo-5,6-dihydropyrrolo[3,4-b]pyrrole-1(4H)-carboxylate], the results for the GI50 in test [1], in test [3] and in test [4] were 226 nM, 46.8 nM and 60.1 nM, respectively. For the same compound, the “K-562 TGI” value in test [1] was more than 10000 nM. In addition, the IC50 in test [2] stood at 38 nM; in test [5] it was 25 nM; in test [6], 26 nM; in test [7] it was 12500 nM. Further, the “MV-4-11 TGI” value in test [3] was found to be 86.15 nM. In test [4], the “THP-1 TGI” value was found to be 130 nM.
Regarding `CNC(=O)n1ccc2c1C(c1ccc(Cl)cc1)N(c1cc(C)c3nnc(C)n3c1)C2=O` (stereo not drawn) [Example 23, 6-(4-chlorophenyl)-5-(3,8-dimethyl-[1,2,4]triazolo[4,3-a]pyridin-6-yl)-N-methyl-4-oxo-5,6-dihydropyrrolo[3,4-b]pyrrole-1(4H)-carboxamide], the results for the 50% growth inhibitory concentration (GI50) in test [1], in test [3] and in test [4] were 206 nM, 29 nM and 39.2 nM, respectively. Moreover, the “K-562 TGI” value in test [1] is more than 10000 nM. The IC50 in test [2] came out at 85 nM; in test [5], 52 nM; in test [6], 39 nM; in test [7] it was 4200 nM. Moreover, the “MV-4-11 TGI” value in test [3] was determined as 54.7 nM. For the same compound, the “THP-1 TGI” value in test [4] was 101.7 nM.
Take `Cc1cc(N2C(=O)c3ccn(C(=O)N(C)C)c3C2c2ccc(Cl)cc2)cn2c(C)nnc12` (stereo not drawn) [Example 24, 6-(4-chlorophenyl)-5-(3,8-dimethyl-[1,2,4]triazolo[4,3-a]pyridin-6-yl)-N,N-dimethyl-4-oxo-5,6-dihydropyrrolo[3,4-b]pyrrole-1(4H)-carboxamide]: the 50% growth inhibitory concentration (GI50) in test [1] amounted to 527 nM; in test [3] it was 92.8 nM; in test [4], 96.4 nM. The “K-562 TGI” value in test [1] is more than 10000 nM. The IC50 came to 220 nM in test [2], 80 nM in test [5], 87 nM in test [6] and 13300 nM in test [7]. The “MV-4-11 TGI” value in test [3] stood at 152 nM. In addition, the “THP-1 TGI” value in test [4] worked out at 267.5 nM.
Consider `Cc1cc(N2C(=O)c3cc(-c4cccn(C)c4=O)[nH]c3C2c2ccc(Cl)cc2)cn2c(C)nnc12` (stereo not drawn) [Example 25, 6-(4-chlorophenyl)-5-(3,8-dimethyl-[1,2,4]triazolo[4,3-a]pyridin-6-yl)-2-(1-methyl-2-oxo-1,2-dihydropyridin-3-yl)-5,6-dihydropyrrolo[3,4-b]pyrrol-4(1H)-one], for which the GI50 turned out to be 156 nM in test [1], 36.8 nM in test [3] and 39.2 nM in test [4]. Moreover, in test [1], the “K-562 TGI” value was more than 10000 nM. For the same compound, the half-inhibitory concentration (IC50) in test [2] amounted to 38 nM; in test [5], 17 nM; in test [6] it was 23 nM; in test [7], 4400 nM. Also, the “MV-4-11 TGI” value in test [3] was determined as 58.15 nM. In test [4], the “THP-1 TGI” value is 94.9 nM.
With `Cc1cc(N2C(=O)c3cc(-c4cccnc4O)[nH]c3C2c2ccc(Cl)cc2)cn2c(C)nnc12` (stereo not drawn) [Example 26, 6-(4-chlorophenyl)-5-(3,8-dimethyl-[1,2,4]triazolo[4,3-a]pyridin-6-yl)-2-(2-hydroxypyridin-3-yl)-5,6-dihydropyrrolo[3,4-b]pyrrol-4(1H)-one], the GI50 was determined as 839 nM in test [1], 70 nM in test [3] and 136 nM in test [4]. The “K-562 TGI” value in test [1] is more than 10000 nM. In addition, the IC50 in test [2] is 78 nM; in test [5] it was 60 nM; in test [6], 52 nM; in test [7], 4000 nM. The “MV-4-11 TGI” value in test [3] came to 118.5 nM. Moreover, the “THP-1 TGI” value in test [4] was 340 nM.
Turning to `Cc1cn(C)c2c1C(=O)N(c1cc(C)c3nnn(C)c3c1)C2c1ccc(Cl)cc1` (stereo not drawn) [Example 28, 6-(4-chlorophenyl)-5-(1,4-dimethyl-1H-benzo[d][1,2,3]triazol-6-yl)-1,3-dimethyl-5,6-dihydropyrrolo[3,4-b]pyrrol-4(1H)-one], the concentration for 50% growth inhibition (GI50) was found to be 55.6 nM in test [1], 12.8 nM in test [3] and 19.2 nM in test [4]. Besides, the “K-562 TGI” value in test [1] was more than 10000 nM. Besides, the half-inhibitory concentration (IC50) in test [2] was determined as 20 nM; in test [5] it was 16 nM; in test [6], 21 nM; in test [7], 1900 nM. For the same compound, in test [3], the “MV-4-11 TGI” value amounted to 26.35 nM. Besides, in test [4], the “THP-1 TGI” value is 38.15 nM.
